The source of these data is US6498180B1, “Excitatory amino acid receptor modulators” (Eli Lilly and Company, priority 1999, dated 2002).

Data set [1] addresses T1, mGluR3 (Homo sapiens, UniProt Q14832). Kind of data set: [3H] LY341495 binding at mGluR3. Further details: expressed in transfected cells. The following applies: Example 1: average result from several tests, read-out: Ki, reversal of [3H] LY341495 binding at mGluR3. An excerpt:
(D. D. Schoepp, et al., Neuropharmacol., 1996, 35, 1661-1672 and 1997, 36, 1-11).

A further data set in a line: animal model of anxiety. Conditions: in vivo.
For data set [2], the target named is T1, mGluR3. Kind of data set: decrease of forskolin-stimulated cAMP in cells expressing mGluR3.

The structures appear in SMILES notation.

In general, Ki refers to the equilibrium dissociation constant of an inhibitor or competing ligand from its target. Broadly, the melting point is the temperature of the solid-liquid transition. What is called EC50 is the concentration that produces a half-maximal response.

T1 sequence (Q14832 23-879): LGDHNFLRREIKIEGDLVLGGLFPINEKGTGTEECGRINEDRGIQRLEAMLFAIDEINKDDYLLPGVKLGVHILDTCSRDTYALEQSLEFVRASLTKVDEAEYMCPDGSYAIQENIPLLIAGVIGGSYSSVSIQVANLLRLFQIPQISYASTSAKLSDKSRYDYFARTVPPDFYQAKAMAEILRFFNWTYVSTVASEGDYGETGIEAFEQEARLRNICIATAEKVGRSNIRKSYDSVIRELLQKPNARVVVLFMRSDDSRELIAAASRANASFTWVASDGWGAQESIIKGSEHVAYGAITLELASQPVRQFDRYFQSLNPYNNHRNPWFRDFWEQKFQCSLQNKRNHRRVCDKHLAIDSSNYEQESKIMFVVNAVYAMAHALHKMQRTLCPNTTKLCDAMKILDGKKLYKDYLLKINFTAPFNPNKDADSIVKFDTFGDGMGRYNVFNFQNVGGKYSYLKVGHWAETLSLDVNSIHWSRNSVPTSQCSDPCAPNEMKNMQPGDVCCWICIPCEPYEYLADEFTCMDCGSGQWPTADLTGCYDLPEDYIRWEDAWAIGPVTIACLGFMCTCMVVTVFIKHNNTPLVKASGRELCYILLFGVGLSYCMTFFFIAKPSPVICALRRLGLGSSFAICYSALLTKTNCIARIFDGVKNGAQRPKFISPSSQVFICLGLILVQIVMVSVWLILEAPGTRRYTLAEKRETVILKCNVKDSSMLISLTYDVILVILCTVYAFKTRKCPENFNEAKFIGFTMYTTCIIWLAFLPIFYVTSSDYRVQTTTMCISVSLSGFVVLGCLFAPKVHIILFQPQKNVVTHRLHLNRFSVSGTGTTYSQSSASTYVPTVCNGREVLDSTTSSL

In the case of `N[C@H](C(=O)O)[C@H]1[C@@H](CO)[C@@H]1C(=O)O` (single isomer, unassigned) [Example 22], the inhibition constant (Ki) at mGluR3 [1] came out at 5.1 nM. `N[C@H](C(=O)O)[C@H]1[C@@H](CSc2ccccc2)[C@@H]1C(=O)O` (racemic) [Example 8, (2SR,1′RS,2′RS,3′RS)-2-[3′-(phenylthiomethyl)-2′-carboxycyclopropyl]glycine] gave a melting point of 201 °C.

In turn, `N[C@H](C(=O)O)[C@H]1[C@@H](CS)[C@@H]1C(=O)O` (racemic) [Example 3, (2SR,1′RS,2′RS,3′RS)-2-[3′-mercaptomethyl-2′-carboxycyclopropyl]glycine] registered a melting point of 200 to 202 °C.

On to `N[C@H](C(=O)O)[C@H]1[C@@H](CO)[C@@H]1C(=O)O` (racemic) [Example 1, (2SR,1′SR,2′RS,3′RS)-2-(3′-hydroxymethyl-2′-carboxycyclopropyl)glycine], for which the “potency in an animal model of anxiety” value in the data set “animal model of anxiety” is “highly potent”. The Ki at mGluR3 [1] came to 7.9 nM. A half-maximal effect on mGluR3 [2] (EC50) was put at 11.5 nM.
